Results: patent US7772252B2, “Heterocyclic substituted carbonyl derivatives and their use as dopamine D3 receptor ligands” (Aventis Pharmaceuticals Inc., priority 2001, dated 2010)
pKi: −log10 of the molar value. Where two headings read alike, the source gives them in different places.

Target: T1, cloned human dopamine D3 receptors (Homo sapiens, UniProt P35462)
T1 construct: expressed in transfected cells; membrane homogenate
Assay: [N-Methyl-3H]Spiroperidol binding to cloned human dopamine D3 receptors
From the text: [N-Methyl-^3H]Spiroperidol Binding to Cloned Human Dopamine D3 Receptors
This assay measures the in vitro activity of compounds on cloned human dopamine (D3) receptors and predicts the direct dopamine-blocking properties of putative neuropsychiatric agents at human dopamine D3 receptors.
The D3 gene was isolated from a human striatal cDNA library (Stratagene). The gene was sequenced and sub-cloned into the expression vector RC/RSV (Invitrogen). CHO (Chinese Hamster Ovary) cells were stably transfected with 10 μg of the D3/RSV plasmid using the DOTAP method from Boehringer Mannheim and 72 clones that were G418 resistant were isolated. Using mRNA and binding displacement data a single high expressing clone was identified. This clone was then grown in large batches for the purpose of developing a 96 well format assay.
• 1. One plate (10 cm) with approximately 2-3 million D3 cells per plate is incubated with 1 ml of Trypsin-EDTA at room temperature for ˜2 min or until cells have lifted off plates. Four ml of Ham's F12+10% Fetal Bovine Serum+1% Penicillin/Streptomycin+G418 (400 μg/ml) medium are added to resuspend cells and 1 ml of this is added to each large plate (15 cm) containing 19 ml of the same medium as mentioned above. • 2. The 5 large plates are incubated at 37° C.+5% CO2 for ˜3 days or until the cells are confluent. • 3. After these plates are confluent, they are split into 10 large plates. Medium is aspirated off, 2 ml of Trypsin-EDTA are added to each plate and plates are incubated at RT for 2 min or until cells have lifted off the plate. Eight ml of the F12 medium (same medium as #1 above) are added to each plate (10 ml total) to resuspend the cells and 5 ml are transferred to the 2 new plates containing 15 ml of the F12 media. • 4. The 10 large plates are incubated at 37° C.+5% CO2 for ˜2 days or until the cells are confluent. • 5. The 10 large plates are split into 60 large plates (using Trypsin-EDTA as #3 except 4 ml of F12 medium are added to resuspend cells and 1 ml is aliquoted to 6 new plates containing 19 ml of F12 medium each). • 6. Plates are incubated at 37° C.+5% CO2 for ˜3 days or until cell are confluent. • 7. The 60 large plates are then split into 60 roller bottles (100-150 million cells/bottle). Medium is aspirated off, 2 ml of Trypsin-EDTA are added to each plate and incubated at RT for ˜2 minutes or until cells have lifted off plates. Eight ml of F12 medium are added to each plate to resuspend cells and the entire 10 ml are added to 1 roller bottle containing 90 ml of the F12 medium. • 8. The 60 roller bottles are immediately placed on their sides and transferred to the roller bottle incubator. They are incubated at 37° C.+5% CO2 for ˜3-5 days. Cells are spun at 30-40% motor speed in the Form a incubator. • 9. Medium is poured off and cells are washed 2× in PBS. • 10. Cells are then scraped off in 20 ml of PBS and the bottles are rinsed again with 5 ml of PBS to remove any remaining cells. Cells are stored on ice before membrane preparation. • 11. The yield for 60 D3 roller bottles has varied from ˜260-500 mg. • Note: All tissue culture reagents are from Gibco-BRL. C. Membrane Preparation
The cells are harvested into 250 ml centrifuge tubes with 100 volumes of cold phosphate buffered saline (PBS) and spun down (1200×G for 10 min at 4° C.). The medium is removed and 100 ml PBS are added to each centrifuge tube, cells are resuspened and spun down again. The PBS is removed and the final pellet is homogenized in an appropriate volume of 10% DMSO with a polytron on ice at a medium setting.
A 200 μl sample membrane homogenate is added to 200 μl of 1% SDS, vortexed and allowed to stand for 5 min. Aliquots (25, 50 and 100 μl) of this mixture are assayed in duplicate following the standard Bio-Rad DC protein assay protocol (kit catalog number 500-0112) and using reagent S. Absorbance readings are made at 750 nm (note: the most accurate protein OD readings are between 0.1-0.5 units). […]

T1 sequence (P35462 whole entry): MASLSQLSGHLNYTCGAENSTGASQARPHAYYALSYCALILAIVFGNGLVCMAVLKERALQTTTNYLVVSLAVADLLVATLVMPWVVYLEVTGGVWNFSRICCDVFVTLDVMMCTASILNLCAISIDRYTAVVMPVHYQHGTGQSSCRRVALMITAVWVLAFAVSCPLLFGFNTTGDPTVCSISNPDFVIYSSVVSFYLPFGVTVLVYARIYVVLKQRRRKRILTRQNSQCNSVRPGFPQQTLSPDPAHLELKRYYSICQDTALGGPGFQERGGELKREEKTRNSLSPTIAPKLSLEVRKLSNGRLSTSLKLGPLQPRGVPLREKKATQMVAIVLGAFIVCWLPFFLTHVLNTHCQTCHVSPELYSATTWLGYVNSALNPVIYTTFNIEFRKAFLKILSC

Row | Compound | pKi (read-out: D3 Ki) | further results
1 | C[C@H]1CC[C@H](NC(=O)[C@@H]2CC[C@H]2CN2CCCN(c3csc4cc(F)ccc34)CC2)CC1 (racemic) [compound 829997] | 7.98 | –
2 | C[C@H]1CC[C@H](NC(=O)[C@@H]2C[C@H]2CN2CCN(c3nn(-c4ccc(F)cc4)c4ccccc34)CC2)CC1 [compound 833701] | 8.89 | –
3 | COc1ccc2c(c1)c(N1CCN(C[C@@H]3C[C@H]3C(=O)NCCc3ccc(F)cc3)CC1)nn2C [compound 833629] | 8.57 | –
4 | O=C(NCCSc1ccc(Cl)cc1)[C@@H]1C[C@H]1CN1CCN(c2csc3cc(C(F)(F)F)ccc23)CC1 [compound 832497] | 7.42 | –
5 | CC(C)(C)C(=O)O[C@H]1CC[C@H](NC(=O)[C@@H]2C[C@H]2CN2CCC(c3csc4c(C(F)(F)F)cccc34)CC2)CC1 [compound 833151] | 7.95 | –
6 | O=C(C1CC1CN1CCC(c2noc3ccsc23)CC1)N1CCN(C2CCCCC2)CC1 (racemic) [compound 829591] | 7.14 | –
7 | O=C([C@@H]1C[C@H]1CN1CCC(c2csc3cc(C(F)(F)F)ccc23)CC1)N1CCC(Cn2ccnc2)CC1 [compound 834017] | 8.79 | –
8 | CN1CCCC1CCNC(=O)[C@@H]1C[C@H]1CN1CCN(c2csc3cc(C(F)(F)F)ccc23)CC1 (mixture of isomers) [compound 831884] | 8.71 | –
9 | O=C(NCCc1c[nH]c2ccccc12)[C@@H]1C[C@H]1CN1CCC(c2noc3ccsc23)CC1 [compound 830830] | 8.59 | –
10 | O=C(NCCCn1ccnc1)[C@@H]1C[C@H]1CN1CCN(c2nn(-c3ccccc3)c3ccsc23)CC1 [compound 832592] | 8.14 | –
11 | O=C([C@@H]1C[C@H]1CN1CCC(c2noc3ccsc23)CC1)N1CCC(Oc2ccc(Cl)cc2)CC1 [compound 832723] | 7.27 | –
12 | O=C([C@@H]1C[C@H]1CN1CCN(c2csc3cc(C(F)(F)F)ccc23)CC1)N1CCC[C@H](CO)C1 [A002438636] | 7.88 | –
13 | O=C(NC1CCN(Cc2ccccc2Cl)CC1)[C@@H]1C[C@H]1CN1CCN(c2csc3cc(C(F)(F)F)ccc23)CC1 [compound 832741] | 8.22 | –
14 | O=C(CCCN1CCN(c2noc3ccsc23)CC1)N1CCC(n2ccnc2)CC1 [compound 832212] | 6.52 | –
15 | C=CCN1CCN(C(=O)[C@@H]2C[C@H]2CN2CCN(c3csc4cc(C(F)(F)F)ccc34)CC2)CC1 [compound 832834] | 7.91 | –
16 | O=C([C@@H]1C[C@H]1CN1CCN(c2csc3cc(C(F)(F)F)ccc23)CC1)N1CCC(Nc2ccc(Cl)cc2)CC1 [compound 832495] | – | pKi (D3 Ki): 7.20
17 | CCC1CCC(NC(=O)C2CC2CN2CCN(Cc3ccccc3)CC2)CC1 (racemic) [compound 827241] | 7.05 | –
18 | O=C(NCCCn1ccnc1)[C@@H]1C[C@H]1CN1CCN(c2nn(-c3ccc(OC(F)(F)F)cc3)c3ccsc23)CC1 [compound 833333] | 8.09 | –
19 | Cc1cccc(CN2CCC(NC(=O)C3CC3CN3CCC(c4noc5ccsc45)CC3)CC2)c1 (racemic) [compound 832348] | 9.33 | –
20 | O=C(NCCCc1nc2ccccc2[nH]1)C1CC1CN1CCC(c2noc3ccsc23)CC1 (racemic) [compound 831622] | 7.46 | –
21 | Cc1ccc(CN2CCN(C(=O)C3CC3CN3CCC(c4noc5ccsc45)CC3)CC2)cc1 (racemic) [compound 832154] | 7.66 | –
22 | CC1CCN(CCCNC(=O)[C@@H]2C[C@H]2CN2CCN(c3nn(C)c4ccsc34)CC2)CC1 [A002350369] | 7.00 | –
23 | O=C(NCCCc1cc[nH]c1)[C@@H]1C[C@H]1CN1CCN(c2csc3cc(C(F)(F)F)ccc23)CC1 [compound 832494] | 7.60 | –
24 | O=C(NCCCn1nnc2ccccc21)C1CC1CN1CCC(c2noc3ccsc23)CC1 (racemic) [compound 831687] | 6.56 | –
25 | CC(C)(C)OC(=O)N1CCN(CCNC(=O)[C@@H]2C[C@H]2CN2CCN(c3csc4cc(C(F)(F)F)ccc34)CC2)CC1 [compound 833277] | 7.78 | –

Row | Compound | pKi (read-out: D3 Ki) | further results
26 | O=C([C@@H]1C[C@H]1CN1CCC(c2noc3ccsc23)CC1)N1CCC(c2noc3ccsc23)CC1 [compound 831345] | 7.46 | –
27 | COCCN1CCN(C(=O)C2CC2CN2CCC(c3noc4ccsc34)CC2)CC1 (racemic) [compound 832190] | 7.02 | –
28 | CC[C@H]1CC[C@H](NC(=O)C2(CCN3CCN(c4csc5cc(C(F)(F)F)ccc45)CC3)CC2)CC1 [compound 832517] | 6.76 | –
29 | O=C(NCc1ccc(-c2ccccc2)cc1)C1CC1CN1CCC(c2noc3ccsc23)CC1 (racemic) [compound 831455] | 8.17 | –
30 | CC(C)(C)OC(=O)N1CCC(NC(=O)[C@@H]2C[C@H]2CN2CCN(c3csc4cc(C(F)(F)F)ccc34)CC2)CC1 [compound 832499] | 7.71 | –
31 | CC[C@H]1CC[C@H](NC(=O)C2(CCN3CCC(c4noc5ccsc45)CC3)CC2)CC1 [832242A] | 6.36 | –
32 | O=C(NC1CCN(Cc2c(Cl)cccc2Cl)CC1)C1CC1CN1CCC(c2noc3ccsc23)CC1 (racemic) [compound 831821] | 7.62 | –
33 | O=C(NCC1CCNCC1)[C@@H]1C[C@H]1CN1CCC(c2noc3c(C(F)(F)F)cccc23)CC1 [A002440437A] | 7.38 | –
34 | CN1CCN(CCCNC(=O)[C@@H]2C[C@H]2CN2CCC(c3csc4cc(C(F)(F)F)ccc34)CC2)CC1 [A002437517] | 7.98 | –
35 | CCCc1cc(N2CCN(CC3CC3C(=O)NC3CCC(CC)CC3)CC2)nc(C(C)(C)C)n1 (racemic) [compound 817274] | 8.35 | –
36 | O=C([C@@H]1C[C@H]1CN1CCC(c2nsc3cc(Br)ccc23)CC1)N1CCCC(Cn2ccnc2)C1 (mixture of isomers) [A002329099] | 8.69 | –
37 | O=C(NCCCn1ccnc1)[C@@H]1C[C@H]1CN1CCN(c2nn(-c3ccc(F)cc3)c3ccsc23)CC1 [compound 832565] | 8.84 | –
38 | CCN(C(=O)CCCN1CCCN(c2csc3cc(F)ccc23)CC1)C1CCCCC1 [compound 826829] | – | pKi (read-out: d3Ki): 8.82
39 | CN1CCN(CCCNC(=O)[C@@H]2C[C@H]2CN2CCC(c3nn(C)c4c(C(F)(F)F)cccc34)CC2)CC1 [A002439259] | 7.41 | –
40 | CN1CCN(CCCNC(=O)[C@@H]2C[C@H]2CN2CCC(c3noc4c(C(F)(F)F)cccc34)CC2)CC1 [A002438639] | 7.01 | –
41 | COc1cccc(CCNC(=O)C2CC2CN2CCC(c3noc4ccsc34)CC2)c1 (racemic) [compound 831804] | 8.00 | –
42 | O=C(NCCCN1CCCC1)[C@@H]1C[C@H]1CN1CCN(c2csc3cc(C(F)(F)F)ccc23)CC1 [compound 831887] | 8.19 | –
43 | CC(C)N1CCN(C(=O)C2CC2CN2CCC(c3noc4ccsc34)CC2)CC1 (racemic) [compound 832188] | 8.00 | –
44 | COc1ccc(CN2CCC(NC(=O)C3CC3CN3CCC(c4noc5ccsc45)CC3)CC2)cc1 (racemic) [compound 831795] | 8.74 | –
45 | Cn1nc(C2CCN(C[C@@H]3C[C@H]3C(=O)N[C@H]3CC[C@H](C)CC3)CC2)c2ccc(C(F)(F)F)cc21 [compound 833696] | 6.57 | –
46 | O=C(N[C@H]1CC[C@H](O)CC1)[C@@H]1C[C@H]1CN1CCC(c2nn(-c3ccc(C(F)(F)F)cc3)c3ccccc23)CC1 [compound 831953] | 7.43 | –
47 | O=C(C1CC1CN1CCC(c2noc3ccsc23)CC1)N1CCN(CCc2cccs2)CC1 (racemic) [compound 832049] | 8.18 | –
48 | CC(C)(C)c1ccc(CCNC(=O)[C@@H]2C[C@H]2CN2CCC(c3noc4ccsc34)CC2)cc1 [compound 833129] | 7.02 | –
49 | COc1cccc(C(=O)NNC(=O)C2CC2CN2CCC(c3noc4ccsc34)CC2)c1 (racemic) [compound 831811] | 6.09 | –
